# Experiments:
# [1] = test system: A2058 human melanoma cells; assay: A2058 melanoma xenograft in CD-1 nude mice, combination with DTIC (1.6); assay type: in vivo, human cells in mice; conditions: A2058 (melanoma), CD-1; SEQ ID NO:1 10 mg/kg i.v. every other day; DTIC 80 mg/kg i.v. days 6-10
# Experimental: (§1) After 52 days the mice were sacrificed and the tumours weighed. […] Mitoxantrone was administered intravenously once at the beginning of the treatments at a dose of 2 mg/kg (FIG. 4A) or once a week for four weeks at a reduced dose of 0.8 mg/kg (FIG. 4B). All treatments were stopped at day 50 (FIG. 4A) or 48 (FIG. 4B), respectively. […] Mitoxantrone was administered intravenously once at the beginning of the treatments at a dose of 2 mg/kg (FIG. 5A) or once a week for four weeks at a reduced dose of 0.8 mg/kg (FIG. 5B). All treatments were stopped at day 42 (FIG. 5A) or 38 (FIG. 5B), respectively. […] A2058 is a metastatic melanoma cell line. […] All treatments were stopped at day 24. […] Taxol was administered intravenously once a week at a dose of 10 mg/kg for three (FIG. 7A) or four weeks (FIG. 7C). Doxorubicin was administered intravenously once a week at a dose of 5 mg/kg for first three weeks (FIG. 7A) or for two weeks (FIG. 7C). All treatments were stopped at day 33 (FIG. 7A) or at day 26 (FIG. 7C), respectively. […] In FIG. 7C, antitumour activities were estimated by the inhibition of tumour volume, which was measured with calipers. Each point represents mean tumour volume calculated from 10 animals per experimental group. […] Taxol was administered intravenously once a week for first three weeks and intraperitoneally once a week for next two weeks at a dose of 10 mg/kg. Cisplatin was administered intravenously once a week for first three weeks and intraperitoneally once a week for next two weeks at a dose of 4 mg/kg. All treatments were stopped at day 40. Antitumour activities were estimated by the inhibition of tumour volume, which was measured with caliper. Each point represents mean tumour volume calculated from 9 animals per experimental group.
# [2] = test system: DU145 human prostatic cancer cells; assay: DU145 prostatic tumour xenograft in SCID mice, combination with mitoxantrone (1.5); assay type: in vivo, human cells in mice; conditions: for Tumour weight as % of saline control: DU145 (prostatic), SCID, SEQ ID NO:1 10 mg/kg i.v. every other day, mitoxantrone i.v.
# Experimental: (§3) After 52 days the mice were sacrificed and the tumours weighed. […] In both experiments, PC-3 human prostatic cancer cells (1×10^7 cells in 100 μl of PBS) were subcutaneously injected into the right flank of 6-7 weeks old male SCID mice. After the size of tumour reached an approximate volume of 50 mm^3, 14 days post tumour cell injection, SEQ ID NO: 1 was administered by bolus infusion into the tail vein every other day at 10 mg/kg 18 times (FIG. 4A) or 17 times (FIG. 4B), respectively. Control animals received saline alone for the same period. Antitumour effect of SEQ ID NO:1 was further compared to that of mitoxantrone (novantrone) alone or in combination. Mitoxantrone was administered intravenously once at the beginning of the treatments at a dose of 2 mg/kg (FIG. 4A) or once a week for four weeks at a reduced dose of 0.8 mg/kg (FIG. 4B). All treatments were stopped at day 50 (FIG. 4A) or 48 (FIG. 4B), respectively. A day after the last treatment, tumours were excised from the animals and their weights were measured. […] In both experiments, DU145 human prostatic cancer cells (1×10^7 cells in 100 μl of PBS) were subcutaneously injected into the right flank of 6-7 weeks old male SCID mice. After the size of tumour reached an approximate volume of 50 mm^3, 13 (FIG. 5A) or 11 (FIG. 5B) days post tumour cell injection, SEQ ID NO:1 was administered by bolus infusion into the tail vein every other day at 10 mg/kg 15 times (FIG. 5A) or 14 times (FIG. 5B), respectively. Control animals received saline alone for the same period. Antitumour effect of SEQ ID NO:1 was further compared to that of mitoxantrone (novantrone) alone or in combination. Mitoxantrone was administered intravenously once at the beginning of the treatments at a dose of 2 mg/kg (FIG. 5A) or once a week for four weeks at a reduced dose of 0.8 mg/kg (FIG. 5B). All treatments were stopped at day 42 (FIG. 5A) or 38 (FIG. 5B), respectively. A day after the last treatment, tumours were excised from the animals and their weights were measured.
# [3] = test system: PC-3 human prostatic cancer cells; assay: PC-3 prostatic tumour xenograft in SCID mice, combination with mitoxantrone (1.4); assay type: in vivo, human cells in mice
# Experimental: as §3
# [4] = test system: MDA-CDDP-S4 human in vivo-selected Cisplatin-resistant breast adenocarcinoma cells; assay: MDA-CDDP-S4 Cisplatin-resistant breast adenocarcinoma, fat pad, SCID mice (2.3); set-up: species or system human cells in mice
# Experimental: (§2) BxPC-3 is a gemcitabine resistant call line. […] Gemcitabine was administered intravenously every three days at a dose of 100 mg/kg. Antitumour activities were estimated by the inhibition of tumour volume, which was measured with caliper. Each point represents mean tumour volume calculated from 10 animals per experimental group. […] Hela S3 is a hydroxyurea resistant cell line. […] Hydroxyurea was administered intraperitoneally every day at a dose of 250 mg/kg for 10 days. Cisplatin was administered intravenously once a week for three weeks at a dose of 4 mg/kg. Antitumour activities were estimated by the inhibition of tumour volume, which was measured with caliper. Each point represents mean tumour volume calculated from 10 animals per experimental group. […] Cisplatin was administered intravenously once a week for three weeks at a dose of 4 mg/kg. Taxol was administered intravenously once a week for three weeks at a dose of 10 mg/kg. Antitumour activities were estimated by the inhibition of tumour volume, which was measured with caliper. Each point represents mean tumour volume calculated from 10 animals per experimental group. […] Taxol was administered i.p. once a week at a dose of 10 mg/kg. Antitumour activities were estimated by the inhibition of tumour volume (FIG. 12A), which was measured with calipers. Each point represents mean tumour volume calculated from 10 animals per experimental group. Animals were sacrificed and tumour weights taken at the end of the study (FIG. 12C). […] Cisplatin was administered intravenously once a week for four weeks at a dose of 4 mg/kg. Taxol was administered intravenously once a week for four weeks at a dose of 20 mg/kg. Antitumour activities were estimated by the inhibition of tumour volume, which was measured with caliper. Each point represents mean tumour volume calculated from 9-10 animals per experimental group. […] Cisplatin was administered intravenously once a week for four weeks at a dose of 4 mg/kg. Antitumour activities were estimated by the inhibition of tumour volume, which was measured with caliper. Each point represents mean tumour volume calculated from 10 animals per experimental group. At the end of the study the animals were sacrificed and tumours weighed. […] Taxol was administered i.p. once a week at a dose of 10 mg/kg. Anti-tumour activity was estimated by the inhibition of tumour volume, which was measured with caliper. Each point represents mean tumour volume calculated from 10 animals per experimental group. In addition animals were sacrificed and tumour weights taken at the end of the study. […] CPT-11 was administered i.p. for 5 days at a dose of 20 mg/kg/day. Antitumour activities were estimated by the inhibition of tumour volume, which was measured with caliper. Each point represents mean tumour volume calculated from 10 animals per experimental group. Tumour weights were measured after animals were sacrificed at the end of the treatment. These cells are not resistant to CPT-11 which was used as a positive control.
# [5] = test system: SK-OV-3 human ovary adenocarcinoma cells; assay: SK-OV-3 ovary tumour xenograft in CD-1 nude mice, combination with taxol or cisplatin (1.8); assay type: in vivo, human cells in mice; conditions: SK-OV-3 (ovary), CD-1; SEQ ID NO:1 10 mg/kg i.v. every other day 17 times; Taxol 10 mg/kg weekly; Cisplatin 4 mg/kg weekly
# Experimental: as §1
# [6] = test system: MDA-MB435-To.1 human Taxol-resistant breast adenocarcinoma cells; assay: MDA-MB435-To.1 Taxol-resistant breast adenocarcinoma, fat pad, SCID mice (2.5); assay type: in vivo, human cells in mice; conditions: MDA-MB435-To.1 (breast), Taxol resistant, SCID; SEQ ID NO:1 10 mg/kg i.v. every other day 15 times; Taxol 20 mg/kg, Cisplatin 4 mg/kg i.v. weekly x4
# Experimental: as §2
# [7] = test system: Hela S3 human cervix epitheloid carcinoma cells; assay: Hela S3 hydroxyurea resistant cervix carcinoma xenograft in SCID mice; assay type: in vivo, human cells in mice; conditions: Hela S3 (cervix), hydroxyurea resistant, SCID; SEQ ID NO:1 10 mg/kg i.v. every other day 6 times; Hydroxyurea 250 mg/kg i.p. daily 10 days; Cisplatin 4 mg/kg i.v. weekly x3
# Experimental: as §2, with “12C). […] The effects of combined treatment were greater than either treatment alone.” for “12C).”
# [8] = test system: MDA-MB435-To.1 human Taxol-resistant breast adenocarcinoma cells; assay: MDA-MB435-To.1 Taxol-resistant breast adenocarcinoma, fat pad, CB-17 SCID mice, combination with Cisplatin (2.6); assay type: in vivo, human cells in mice; conditions: MDA-MB435-To.1 (breast), Taxol resistant, CB-17/SCID; SEQ ID NO:1 10 mg/kg i.v. every other day; Cisplatin 4 mg/kg i.v. weekly x4
# Experimental: BxPC-3 is a gemcitabine resistant call line. […] Gemcitabine was administered intravenously every three days at a dose of 100 mg/kg. Antitumour activities were estimated by the inhibition of tumour volume, which was measured with caliper. Each point represents mean tumour volume calculated from 10 animals per experimental group. […] Hela S3 is a hydroxyurea resistant cell line. […] Hydroxyurea was administered intraperitoneally every day at a dose of 250 mg/kg for 10 days. Cisplatin was administered intravenously once a week for three weeks at a dose of 4 mg/kg. Antitumour activities were estimated by the inhibition of tumour volume, which was measured with caliper. Each point represents mean tumour volume calculated from 10 animals per experimental group. […] Cisplatin was administered intravenously once a week for three weeks at a dose of 4 mg/kg. Taxol was administered intravenously once a week for three weeks at a dose of 10 mg/kg. Antitumour activities were estimated by the inhibition of tumour volume, which was measured with caliper. Each point represents mean tumour volume calculated from 10 animals per experimental group. […] Taxol was administered i.p. once a week at a dose of 10 mg/kg. Antitumour activities were estimated by the inhibition of tumour volume (FIG. 12A), which was measured with calipers. Each point represents mean tumour volume calculated from 10 animals per experimental group. […] Antitumour activities were estimated by the inhibition of tumour volume, which was measured with caliper. Each point represents mean tumour volume calculated from 9-10 animals per experimental group. […] Antitumour activities were estimated by the inhibition of tumour volume, which was measured with caliper. Each point represents mean tumour volume calculated from 10 animals per experimental group. […] Anti-tumour activity was estimated by the inhibition of tumour volume, which was measured with caliper. Each point represents mean tumour volume calculated from 10 animals per experimental group. […] Antitumour activities were estimated by the inhibition of tumour volume, which was measured with caliper. […]
smiles,measurement,setting,value
"CN(C)/N=N/c1[nH]cnc1C(N)=O [DTIC, dacarbazine, reference compound]",Tumour weight as % of saline control,[1],68%
"O=C1c2c(O)ccc(O)c2C(=O)c2c(NCCNCCO)ccc(NCCNCCO)c21 [Novantrone, mitoxantrone]",Tumour weight as % of saline control,[2]; first of two printed values (two independent experiments),40%
same,Tumour weight as % of saline control,[2]; second of two printed values (two independent experiments),60%
same,"Antitumour effect (tumour weight, FIG. 5B)","[2]; DU145, SCID mice, SEQ ID NO:1 10 mg/kg i.v. every other day 14 times, mitoxantrone 0.8 mg/kg i.v. once a week for four weeks",significant delay of tumour growth
same,Tumour weight as % of saline control,"[3]; PC-3 (prostatic), SCID, SEQ ID NO:1 10 mg/kg i.v. every other day, mitoxantrone (novantrone) i.v., table does not say which of two experiments",57%
same,"Antitumour effect (tumour weight, FIG. 4B)","[3]; PC-3, SCID mice, SEQ ID NO:1 10 mg/kg i.v. every other day 17 times, mitoxantrone 0.8 mg/kg i.v. once a week for four weeks",significant delay of tumour growth
"N.N.[Cl][Pt][Cl] [Cisplatin, reference compound]",Tumour weight as % of saline control,"[4]; MDA-CDDP-S4 (breast), Cisplatin resistant, SCID, SEQ ID NO:1 10 mg/kg i.v. every other day 9 times, Taxol 10 mg/kg, Cisplatin 4 mg/kg i.v. weekly x3",78%
same,Antitumour effect (FIG. 11),"[4]; MDA-CDDP-S4 Cisplatin-resistant, SCID mice, SEQ ID NO:1 10 mg/kg i.v. every other day, Cisplatin 4 mg/kg, Taxol 10 mg/kg i.v. weekly",ineffective against Cisplatin-resistant tumour
same,tumour volume data as percentage of saline control,[5],67%
same,Tumour weight as % of saline control,[6],69%
same,Tumour weight as % of saline control,[7],63%
same,Tumour weight as % of saline control,[8],56%

# From patent publication US7968526B2, “Antisense oligonucleotides directed to ribonucleotide reductase R2 and uses thereof in the treatment of cancer” (Lorus Therapeutics Inc., priority 2003, dated 2011)
